From ChEMBL document CHEMBL5241113, “Total Heterologous Biosynthesis of Fungal Natural Products in Aspergillus nidulans” (2022) come the findings set out here.

In brackets after ≈: the same amount, converted by molar mass.

The test has as its system Nematoda. The experiment in a line: Nematocidal activity. The test is classed as functional.

A word on the LC50: it is the concentration that kills 50% of the test population. Higher therefore signals lower toxicity. Take `CC(=O)O[C@H](C[C@H](C)O)[C@@H](C)[C@@H](O)[C@@H](C)C[C@H](C)[C@@H]1OC(=O)[C@H](C)NC(=O)C[C@@H](O)C[C@H](O)[C@H](C)C[C@H]1C`: the LC50 is 0.5 µg/mL (≈ 0.916 µM). With `CC(=O)O[C@@H](C)C[C@@H](O)[C@@H](C)[C@@H](O)[C@@H](C)C[C@H](C)[C@@H]1OC(=O)[C@H](C)NC(=O)C[C@@H](O)C[C@H](O)[C@H](C)C[C@H]1C`, the LC50 came out at 0.5 µg/mL (≈ 0.916 µM).
